In patent US5352608A (priority 1992, dated 1994):

What was measured:
[1] = test system: tellurite reductase activity, R. sphaeroides 2.4.1; experiment: TeO3^2- -dependent FADH2 oxidation in subcellular fractions; type: biochemical, Rhodobacter sphaeroides; conditions: for FADH2 oxidation: 100 μg/ml K2 TeO3
[2] = test system: Rhodobacter sphaeroides RS2; experiment: Intrinsic HLR to TeO3^2- (MIC); type: cell-based; conditions: for MIC of RS2 lower than strain 2.4.1, 2.4.7 or WS8: approximately
[3] = test system: Rhodopseudomonas palustris 1e5; experiment: Intrinsic HLR to TeO3^2- (MIC); type: cell-based
Proteobacteria = experiment: Intrinsic HLR to tellurite, comparison across strains; type: cell-based; conditions: aerobic vs photosynthetic; exception R. gelatinosus
[4] = test system: tellurite reductase activity, R. sphaeroides PRKA^- B^-; experiment: TeO3^2- -dependent FADH2 oxidation in subcellular fractions; type: biochemical, Rhodobacter sphaeroides; conditions: 100 μg/ml K2 TeO3
[5] = test system: Rhodopseudomonas viridis F; experiment: Intrinsic HLR to TeO3^2- (MIC); type: cell-based
[6] = test system: Rhodobacter capsulatus B10; experiment: Intrinsic HLR to TeO3^2- (MIC); type: cell-based
[7] = test system: tellurite reductase activity, R. sphaeroides PUHA1; experiment: TeO3^2- -dependent FADH2 oxidation in subcellular fractions; type: biochemical, Rhodobacter sphaeroides; conditions: 100 μg/ml K2 TeO3
[8] = test system: R. sphaeroides CFXA^- B^-; experiment: Intrinsic HLR to tellurite in R. sphaeroides mutants (MIC); type: cell-based, Rhodobacter sphaeroides; conditions: for MIC K2 TeO3: SMM succinate
Experimental: (§1) All Proteobacteria were grown at 30° C. with the exception of E. coli which was cultured at 37° C. on a Gyrotary shaker. Cultures of R. sphaeroides and R. gelatinosus were grown in LB, YP, or SMM containing either 0.4% succinate, 0.4% malate, or 0.4% butyrate as a carbon source. Cultures of R. capsulatus were grown in RCVB minimal medium containing 0.4% malate as a carbon source; R. rubrum was grown in SMM containing 0.4% malate, and 0.1% yeast extract. R. palustris and R. viridis were grown in SMM containing 0.4% malate, 0.1% yeast extract, and 50 μg/ml each of p-aminobenzoic acid and cyanocobalamin. […] Anaerobic-dark growth of R. sphaeroides on SMM medium containing DMSO, and photoheterotrophic growth conditions have been previously reported.
(§2) Several growth conditions were examined to determine requirements for tellurite reduction in vivo. Table 5 indicates the growth conditions tested.
(§3) ^a MIC were determined in SMM containing succinate at 30° C.
(§4) ^c Supplemented with 60 mM DMSO.

R. sphaeroides PUC705B = experiment: as above; type: cell-based, Rhodobacter sphaeroides; conditions: SMM succinate
Experimental: as §1, §2, §3, §4

R. sphaeroides CFXB^- = experiment: as above; type: cell-based, Rhodobacter sphaeroides; conditions: for MIC K2 TeO3: SMM succinate
Experimental: as §1, §2, §3, §4

R. sphaeroides PRKA^- = experiment: as above; type: cell-based, Rhodobacter sphaeroides; conditions: for MIC K2 TeO3: SMM succinate; for Increase in TeO3^2- sensitivity: prkA deletion
Experimental: as §1, §2, §3, §4

R. sphaeroides 2.4.1-Ga = experiment: as above; type: cell-based, Rhodobacter sphaeroides; conditions: for MIC K2 TeO3: SMM succinate
Experimental: as §1, §2, §3, §4

R. sphaeroides BC17 = experiment: as above; type: cell-based, Rhodobacter sphaeroides; conditions: for MIC K2 TeO3: SMM succinate
Experimental: as §1, §2, §3, §4

R. sphaeroides PUFB1 = experiment: as above; type: cell-based, Rhodobacter sphaeroides; conditions: SMM succinate; aerobic; ( ) = resistance but no deposition of Te^0
Experimental: as §1, §2, §3, §4

[9] = test system: R. sphaeroides PRKA^- B^-; experiment: as above; type: cell-based, Rhodobacter sphaeroides; conditions: for MIC K2 TeO3: SMM succinate
Experimental: as §1, §2, §3, §4

R. sphaeroides CYCA1 = experiment: as above; type: cell-based, Rhodobacter sphaeroides; conditions: SMM succinate; aerobic; ( ) = resistance but no deposition of Te^0
Experimental: as §1, §2, §3, §4

R. sphaeroides PUHA1 = experiment: as above; type: cell-based, Rhodobacter sphaeroides; conditions: for MIC K2 TeO3: SMM succinate
Experimental: as §1, §2, §3, §4

R. sphaeroides MM1006 = experiment: as above; type: cell-based, Rhodobacter sphaeroides; conditions: SMM succinate; aerobic; ( ) = resistance but no deposition of Te^0
Experimental: as §1, §2, §3, §4

R. sphaeroides PRKB^- = experiment: as above; type: cell-based, Rhodobacter sphaeroides; conditions: for MIC K2 TeO3: SMM succinate
Experimental: as §1, §2, §3, §4

R. sphaeroides CFXA^- = experiment: as above; type: cell-based, Rhodobacter sphaeroides; conditions: for MIC K2 TeO3: SMM succinate; for Increase in TeO3^2- sensitivity: cfxA deletion
Experimental: as §1, §2, §3, §4

R. sphaeroides 2.4.1ΔS = experiment: as above; type: cell-based, Rhodobacter sphaeroides; conditions: for MIC K2 TeO3: SMM succinate
Experimental: as §1, §2, §3, §4

[10] = aerobic, ( ) = resistance but no deposition of Te^0
[11] = photosynthetic and anaerobic-dark/DMSO, at least

O=[Te]([O-])[O-].[K+].[K+] [K2 TeO3]
FADH2 oxidation ([1]; cytoplasm): 60 nmol/min/mg
FADH2 oxidation ([1]; membrane): 300 nmol/min/mg
FADH2 oxidation ([1]; periplasm): 1 nmol/min/mg
Reductase activity in words ([1]; periplasmic and cytoplasmic fractions of all strains): Negligible reductase activity
MIC K2 TeO3 ([2]; aerobic, minimal medium): 400 µg/mL
MIC of RS2 lower than strain 2.4.1, 2.4.7 or WS8 [2]: approximately two-to three fold
MIC of RS2 lower than strain 2.4.1, 2.4.7 or WS8 ([2]; listed as tellurite): approximately two- to three-fold
MIC K2 TeO3 ([2]; photosynthetic, 10 W/m^2): 250 µg/mL
MIC K2 TeO3 ([3]; aerobic, minimal medium): 200 µg/mL
MIC K2 TeO3 ([3]; photosynthetic, 10 W/m^2): 100 µg/mL
MIC increase, cells grown aerobically (Proteobacteria): approximately 50%
FADH2 oxidation ([4]; membrane): 200 nmol/min/mg
FADH2 oxidation ([4]; periplasm): 3 nmol/min/mg
MIC K2 TeO3 ([5]; aerobic, minimal medium): 80 µg/mL
MIC K2 TeO3 ([5]; photosynthetic, 10 W/m^2): 50 µg/mL
Resistance in words ([6]; aerobic): intrinsic high level resistance
MIC K2 TeO3 ([6]; aerobic, minimal medium): 800 µg/mL
MIC relative to E. coli ([6]; aerobic, tellurite): at least 80 times
MIC K2 TeO3 ([6]; photosynthetic, 10 W/m^2): 500 µg/mL
FADH2 oxidation ([7]; cytoplasm): 37 nmol/min/mg
FADH2 oxidation ([7]; membrane): 28 nmol/min/mg
FADH2 oxidation ([7]; periplasm): 3 nmol/min/mg
MIC K2 TeO3 [8, 10]: 200 µg/mL
MIC K2 TeO3 ([8]; anaerobic-dark, 60 mM DMSO): < 10 µg/mL
Concentration to which strain is resistant ([8]; aerobic): < 200 µg/mL
MIC K2 TeO3 (R. sphaeroides PUC705B; aerobic): 850 µg/mL
MIC K2 TeO3 (R. sphaeroides PUC705B; anaerobic-dark, 60 mM DMSO): 150 µg/mL
MIC K2 TeO3 (R. sphaeroides PUC705B; photosynthetic 10 W/m^2): 500 µg/mL
MIC K2 TeO3 (R. sphaeroides CFXB^-; aerobic): 750 µg/mL
MIC K2 TeO3 (R. sphaeroides CFXB^-; anaerobic-dark, 60 mM DMSO): 150 µg/mL
MIC K2 TeO3 (R. sphaeroides CFXB^-; photosynthetic 10 W/m^2): 650 µg/mL
Diminution of HLR to TeO3^2- (R. sphaeroides CFXB^-; single mutation in cfxB): 10-20%
MIC K2 TeO3 (R. sphaeroides PRKA^-; aerobic): 350 µg/mL
MIC K2 TeO3 (R. sphaeroides PRKA^-; anaerobic-dark, 60 mM DMSO): 60 µg/mL
MIC K2 TeO3 (R. sphaeroides PRKA^-; photosynthetic 10 W/m^2): 100 µg/mL
Increase in TeO3^2- sensitivity (R. sphaeroides PRKA^-; aerobic): two-fold
Increase in TeO3^2- sensitivity (R. sphaeroides PRKA^-; [11]): at least three- to five-fold
MIC K2 TeO3 (R. sphaeroides 2.4.1-Ga; aerobic): 600 µg/mL
MIC K2 TeO3 (R. sphaeroides 2.4.1-Ga; anaerobic-dark, 60 mM DMSO): 100 µg/mL
MIC K2 TeO3 (R. sphaeroides 2.4.1-Ga; photosynthetic 10 W/m^2): 450 µg/mL
Increase in TeO3^2- sensitivity (R. sphaeroides 2.4.1-Ga; vs wild-type): 20%
MIC K2 TeO3 (R. sphaeroides BC17; aerobic): < 10 µg/mL
MIC K2 TeO3 (R. sphaeroides BC17; anaerobic-dark, 60 mM DMSO): < 10 µg/mL
Concentration to which strain is sensitive (R. sphaeroides BC17; all growth conditions): 10 µg/mL
MIC K2 TeO3 (R. sphaeroides PUFB1): 400 µg/mL
MIC K2 TeO3 [9, 10]: 150 µg/mL
MIC K2 TeO3 ([9]; anaerobic-dark, 60 mM DMSO): < 10 µg/mL
Concentration to which strain is resistant ([9]; aerobic): < 200 µg/mL
MIC K2 TeO3 (R. sphaeroides CYCA1): 400 µg/mL
MIC K2 TeO3 (R. sphaeroides PUHA1; aerobic): < 10 µg/mL
MIC K2 TeO3 (R. sphaeroides PUHA1; anaerobic-dark, 60 mM DMSO): < 10 µg/mL
Concentration to which strain is sensitive (R. sphaeroides PUHA1; all growth conditions): 10 µg/mL
MIC K2 TeO3 (R. sphaeroides MM1006): 400 µg/mL
MIC K2 TeO3 (R. sphaeroides PRKB^-; aerobic): 800 µg/mL
MIC K2 TeO3 (R. sphaeroides PRKB^-; anaerobic-dark, 60 mM DMSO): 150 µg/mL
MIC K2 TeO3 (R. sphaeroides PRKB^-; photosynthetic 10 W/m^2): 500 µg/mL
Diminution of HLR to TeO3^2- (R. sphaeroides PRKB^-; single mutation in prkB): 10-20%
MIC K2 TeO3 (R. sphaeroides CFXA^-; aerobic): 400 µg/mL
MIC K2 TeO3 (R. sphaeroides CFXA^-; anaerobic-dark, 60 mM DMSO): 50 µg/mL
MIC K2 TeO3 (R. sphaeroides CFXA^-; photosynthetic 10 W/m^2): 100 µg/mL
Increase in TeO3^2- sensitivity (R. sphaeroides CFXA^-; aerobic): two-fold
Increase in TeO3^2- sensitivity (R. sphaeroides CFXA^-; [11]): at least three- to five-fold
Effect of 42-kb plasmid deletion on HLR (R. sphaeroides 2.4.1ΔS): did not diminish HLR to TeO3^2-
MIC K2 TeO3 (R. sphaeroides 2.4.1ΔS; aerobic): 850 µg/mL
MIC K2 TeO3 (R. sphaeroides 2.4.1ΔS; anaerobic-dark, 60 mM DMSO): 150 µg/mL
MIC K2 TeO3 (R. sphaeroides 2.4.1ΔS; photosynthetic 10 W/m^2): 600 µg/mL
